Experimental data: US20080132529A1, “Method of improving bioavailability for non-sedating barbiturates” (priority 2006, published 2008)
Several values for one entry are separate records, joined by “and”; a condition that tells them apart may be missing. Identical values can stand only once.

What was measured:
[1] = Early pharmacokinetic studies in dogs, high fat meal vs customary dog food; format: in vivo
[2] = tested on: electroshock and chemoconvulsive seizures; details: animal studies; at doses which exhibited no neurological impairment; cited from earlier work
[3] = Phase I food-effect crossover pharmacokinetic study, single 400 mg oral dose of T2000 (DMMDPB), fasting vs fed; details: for Rate and extent of absorption when administered after a high fat, high calorie breakfast: fed vs fasting; for Rate and extent of absorption when administered after a high fat, high calorie breakfast / AUC(0-inf) / Cmax / half-life / Tmax / AUC0-t Ratio (Fasting/Fed) / T1/2 Ratio (Fasting/Fed) / Tmax Ratio (Fasting/Fed) / Cmax Ratio (Fasting/Fed) / AUC0-∞ Ratio (Fasting/Fed): single 400 mg oral dose of DMMDPB; for AUC(0-t) / AUC(0-inf) / Cmax / half-life / Tmax: male, human, plasma, po, 400 mg; for AUC(0-t): AUC0-t, plasma analyte after single 400 mg oral dose of DMMDPB; for AUC(0-t) / Cmax / Tmax / AUC0-t Ratio (Fasting/Fed) / Cmax Ratio (Fasting/Fed): n=23; for AUC(0-t) / AUC(0-inf): least-squares geometric mean; for AUC(0-inf): AUC0-∞; for AUC(0-inf) / half-life / AUC0-∞ Ratio (Fasting/Fed): n=18 for DMMDPB, n=20 for MMMDPB; for half-life / Tmax: arithmetic mean; for AUC0-t Ratio (Fasting/Fed): ratio fasting/fed of geometric means
Procedure: This was a single center, randomized, single dose, open-label, 2-way, food-effect crossover study to compare the rate and extent of absorption of T2000, administered as 4×100 mg capsules (for a total dose of 400 mg), under fasting and fed conditions. Subjects were confined to a clinical research facility from at least 11 hours prior to drug administration until after the 72.0-hour post-dose blood draw, in each period. Single oral doses were separated by a washout period of at least 21 days.
All subjects met the inclusion and exclusion criteria described in the protocol and were judged eligible for the study, based on medical history, demographic data (including sex, age, body weight [kg], height [cm], and BMI [kg/m2], medication history, physical examination, vital signs (blood pressure, respiratory rate, heart rate, and oral temperature), 12-lead ECG, brief neurological examination (including assessment of mental status, orientation, memory, arithmetic and spelling, eye movement, gait and coordination), opthalmology examination (lamp examination; performed within 3 months prior to the first dose), and clinical laboratory tests (hematology, biochemistry, urinalysis, HIV and hepatitis C [HCV] antibodies, and hepatitis B antigen [HBsAg]). […] Screening procedures took place within 28 days prior to Period 1 drug administration.
Subjects abstained from food or drink containing xanthine derivatives or xanthine-related compounds (e.g. coffee, tea, caffeine-containing sodas, colas, chocolate, or decaffeinated products) and energy drinks from 48 hours prior to drug administration, until the end of sample collection in each period; alcohol from 24 hours prior to drug administration, until the end of sample collection in each period, and grapefruit products (e.g. fresh, canned, or frozen); natural food supplements (including garlic as a supplement), and vitamins from 7 days prior to drug administration, until the end of sample collection in each period. Any subjects who felt dizzy or drowsy when they left the clinical facility were advised against performing activities requiring mental alertness, judgment, and physical coordination until they felt safe to do so.
Treatment A: The subjects fasted for at least 10 hours prior to drug administration.
Treatment B: After a supervised overnight fast of at least 10 hours, and 30 minutes before drug administration, subjects were served a standard high-fat, high-caloric breakfast of approximately 1000 calories (approximately 150 calories from protein, 250 calories from carbohydrates, and […]). […] Subjects were required to completely consume this breakfast within 30 minutes, and prior to drug administration. Subjects were dosed on the momrings of Apr. […] Subjects were administered the test or reference medication as a single oral dose of 4 capsules, each containing 100 mg of prodrug T2000 (total dose of 400 mg), with approximately 240 ml of water. Subjects were dosed as specified in the protocol, and subsequently fasted for a period of at least 4 hours. A mouth and hand check was performed to ensure the subjects had swallowed the study medication.
All blood samples were drawn into blood collection tubes (1×7 ml) containing EDTA K3 prior to drug administration and 0.500, 1.00, 2.00, 3.00, 4.00, 5.00, 6.00, 8.00, 10.0, 12.0, 15.0, 18.0, 24.0, 36.0, 48.0, 72.0, 96.0, and 120 hours post-dose in each period. All blood samples were collected via direct venipuncture.
Analysis of T-2000, MMMDPB and DPB were performed using High Performance Liquid Chromatographic Method with Tandem Mass. Spectrometry Detection. The analytical method was developed and validated.

[4] = in vivo; cited from earlier work
[5] = Fed (high-fat breakfast 30 min before dose)

Structure (SMILES) | Anticonvulsant activity against electroshock and chemoconvulsive seizures [2] | Rate and extent of absorption when administered after a high fat, high calorie breakfast [3] | AUC(0-t) ([3]; Fasting, healthy subjects) | AUC(0-t) [3, 5] | AUC(0-inf) ([3]; Fasting) | AUC(0-inf) ([3]; Fed) | Cmax ([3]; Fasting) | Cmax ([3]; Fed) | half-life ([3]; T1/2, Fasting) | half-life ([3]; T1/2, Fed) | Tmax ([3]; Fasting) | Tmax ([3]; Fed) | AUC0-t Ratio (Fasting/Fed) [3] | T1/2 Ratio (Fasting/Fed) [3] | Tmax Ratio (Fasting/Fed) [3] | Cmax Ratio (Fasting/Fed) [3] | AUC0-∞ Ratio (Fasting/Fed) [3] | further results
COCN1C(=O)N(COC)C(=O)C(c2ccccc2)(c2ccccc2)C1=O [DMMDPB, 1,3-dimethoxymethyl-5,5-diphenyl barbituric acid] | anticonvulsant properties | increased | 3100 ng·h/mL | 8710 ng·h/mL | 5320 ng·h/mL | 10800 ng·h/mL | 129 ng/mL | 887 ng/mL | 26.1 h | 18.5 h | 7.52 h | 4.88 h | 35.6% and 35.57% | 141.55% | 154.34% | 14.6% and 14.58% | 49.46% | Absorption with a high fat meal compared with customary dog food [1]: more completely absorbed; Adverse events reported (total) ([3]; minor, occurred in both fed and fasting conditions, 23 subjects, single 400 mg oral doses): 35; Tolerability ([3]; single 400 mg oral dose, fed and fasting, healthy males): well tolerated
O=C1NC(=O)C(c2ccccc2)(c2ccccc2)C(=O)N1 [DPB, 5,5-diphenyl barbituric acid] | anticonvulsant properties | increased | 143000 ng·h/mL | 219000 ng·h/mL | 185000 ng·h/mL | 271000 ng·h/mL | 1750 ng/mL | 2790 ng/mL | 43 h | 38.5 h | 54.8 h | 48.3 h | 65.3% and 65.28% | 111.62% | 113.50% | 62.9% and 62.93% | 68.04% | –
COCN1C(=O)NC(=O)C(c2ccccc2)(c2ccccc2)C1=O [MMMDPB, monomethoxymethyl-5,5-diphenyl barbituric acid] | – | increased | 36400 ng·h/mL | 99500 ng·h/mL | 54000 ng·h/mL | 120000 ng·h/mL | 898 ng/mL | 2820 ng/mL | 26.8 h | 16.2 h | 20.2 h | 8.83 h | 36.6% and 36.56% | 165.33% | 229.02% | 31.9% and 31.86% | 44.86% | –
CCC1(c2ccccc2)C(=O)NC(=O)NC1=O [phenobarbital] | – | – | – | – | – | – | – | – | – | – | – | – | – | – | – | – | – | Serum and brain levels on administration with food [4]: significantly decreased
